Structures can show the parent of a compound that is named as a salt.
Key:
[1] = tested on: L6-myotubes; assay: Glucose uptake in differentiated L6-myotubes (3H-2-deoxyglucose), compared to isoproterenol; format: cell-based; settings: agonist 1×10^−5 M, 50 nM 3H-2-deoxyglucose; for Emax at 10 µM: read-out: Biological example 1: glucose uptake, activity compared to that of isoproterenol
Protocol: (§1) L6-myoblasts were grown in Dulbecco's Modified Eagle's Medium (DMEM) containing 1 g/L glucose supplemented with 10% fetal bovine serum, 2 mM L-Glutamine, 50 U/mL penicillin, 50 μg/mL streptomycin and 10 mM HEPES. Cells were plated at 1×10^5 cells per mL in 24-well plates. After reaching 90% confluence the cells were grown in medium containing 2% FBS for 7 days where upon cells differentiated into myotubes.
Differentiated L6-myotubes were serum-starved overnight in medium containing 0.5% fatty-acid free BSA and stimulated with an agonist, with a final concentration of 1×10^−5 M. After 1 h 40 min the cells were washed with warm glucose free medium or PBS twice and another portion of agonist was added to the glucose free medium. After 20 min the cells were exposed to 50 nM ^3H-2-deoxyglucose for 10 min before washed with ice cold glucose free medium or PBS three times and lysed with 0.2 M NaOH, 400 μL/well, for 1 h at 60° C. The cell lysate was mixed with 4 mL scintillation buffer (Emulsifier Safe, Perkin Elmer) and the radioactivity was detected in a β-counter (Tri-Carb 4810TR, Perkin Elmer). The activity for each compound is compared to that of isoproterenol.

[2] = tested on: L6-myotubes; assay: Measurement of intracellular cAMP levels in differentiated L6 cells (alpha screen cAMP kit), compared to isoproterenol; format: cell-based; settings: agonist 1×10^−5 M, 15 min; for Emax at 10 µM: Rattus norvegicus, L6, 0.25 h, read-out: Biological example 2: intracellular cAMP levels, activity compared to that of isoproterenol
Protocol: as §1
Differentiated cells were serum-starved overnight and stimulated with an agonist, final concentration 1×10^−5 M, for 15 min in stimulation buffer (HBSS supplemented with 1% BSA, 5 mM HEPES and 1 mM IBMX, pH 7.4). The medium was aspirated and 100 μL of 95% EtOH was added to each well of the 24-well plate and cells were kept at −20° C. overnight. The EtOH was allowed to evaporate and 500 μL of lysis buffer (1% BSA, 5 mM HEPES and 0.3% Tween-20, pH 7.4) was added to each well. The plate was kept at −80° C. for 30 min and then at −20° C. until the day of detection when the samples were thawed. Intracellular cAMP levels were detected using an alpha screen cAMP kit (6760635D from Perkin Elmer). The activity for each compound is compared to that of isoproterenol.

Row | Structure (SMILES) | Biological example 1: glucose uptake, activity compared to that of isoproterenol [1] | Emax at 10 µM [2] [%] | Emax at 10 µM [1] [%] | Biological example 2: intracellular cAMP levels, activity compared to that of isoproterenol [2]
1 | CO[C@H]1CC[C@@H](CCC(C)(C)NC[C@H](O)c2cncc(F)c2)CC1 [Example 24, (R)-1-(5-Fluoropyridin-3-yl)-2-((4-((1s,4R)-4-methoxycyclohexyl)-2-methylbutan-2-yl)amino)ethan-1-ol dihydrochloride] | + + + | < 25 |  | 
2 | CCCS(=O)(=O)N[C@H]1CC[C@H](CC(C)(C)NC[C@H](O)c2cccc(F)c2)CC1 [Example 159, N-((1R,4r)-4-(2-(((R)-2-(3-Fluorophenyl)-2-hydroxyethyl)amino)-2-methylpropyl)cyclohexyl)propane-1-sulfonamide hydrochloride] | + + + | 25 to 50 |  | 
3 | CC(C)(C[C@H]1CC[C@H](N)CC1)NC[C@H](O)c1cccc(C#N)n1 [Example 132, 6-((S)-2-((1-((1r,4S)-4-Aminocyclohexyl)-2-methylpropan-2-yl)amino)-1-hydroxyethyl)picolinonitrile trihydrochloride] | + + + | 25 to 50 |  | 
4 | CCCS(=O)(=O)N[C@H]1CC[C@@H](CC(C)(C)NC[C@H](O)c2cccc(F)c2)CC1 [Example 171, N-((1S,4s)-4-(2-(((R)-2-(3-Fluorophenyl)-2-hydroxyethyl)amino)-2-methylpropyl)cyclohexyl)propane-1-sulfonamide hydrochloride] | + + + | < 25 |  | 
5 | CC(C)(C[C@H]1CC[C@H](S(N)(=O)=O)CC1)NC[C@H](O)c1cncc(F)c1 [Example 195, (1R,4r)-4-(2-(((R)-2-(5-Fluoropyridin-3-yl)-2-hydroxyethyl)amino)-2-methylpropyl)cyclohexane-1-sulfonamide dihydrochloride] | + + + | < 25 |  | 
6 | Cc1ncccc1[C@@H](O)CNC(C)(C)C[C@H]1CC[C@@H](NS(C)(=O)=O)CC1 [Example 144, N-((1S,4s)-4-(2-(((R)-2-Hydroxy-2-(2-methylpyridin-3-yl)ethyl)amino)-2-methylpropyl)cyclohexyl)methanesulfonamide dihydrochloride] | + + | < 25 |  | 
7 | CN(C)C(=O)N[C@H]1CC[C@@H](CC(C)(C)NC[C@H](O)c2cccc(F)c2)CC1 [Example 169, 3-((1S,4s)-4-(2-(((R)-2-(3-Fluorophenyl)-2-hydroxyethyl)amino)-2-methylpropyl)cyclohexyl)-1,1-dimethylurea hydrochloride] | + + + | 25 to 50 |  | 
8 | O[C@@H](CNCC[C@H]1CC[C@H](O)CC1)c1cccc(F)c1 [Example 46, (1R,4r)-4-(2-(((R)-2-(3-Fluorophenyl)-2-hydroxyethyl)amino)ethyl)-cyclohexan-1-ol] |  | < 25 | 25 to 50 | 
9 | CNS(=O)(=O)[C@H]1CC[C@H](CC(C)(C)NC[C@H](O)c2cncc(F)c2)CC1 [Example 191, (1R,4r)-4-(2-(((R)-2-(5-Fluoropyridin-3-yl)-2-hydroxyethyl)amino)-2-methylpropyl)-N-methylcyclohexane-1-sulfonamide dihydrochloride] | + + | < 25 |  | 
10 | O[C@@H](CNC[C@H]1CC[C@@H](O)CC1)c1cncc(F)c1 [Example 28, (1S,4s)-4-((((R)-2-(5-Fluoropyridin-3-yl)-2-hydroxyethyl)amino)-methyl)cyclohexan-1-ol] |  | < 25 | 25 to 50 | 
11 | O[C@@H](CNCCCC1CCC(OCc2ccccc2)CC1)c1cccc(F)c1 (stereo partly drawn) [Example 53, (R)-2-((3-((1r,4S)-4-(Benzyloxy)cyclohexyl)propyl)amino)-1-(3-fluoro-phenyl)ethan-1-ol] |  | < 25 | 25 to 50 | 
12 | CC(C)(C[C@H]1CC[C@H](NS(C)(=O)=O)CC1)NC[C@H](O)c1cncc(F)c1 [Example 89, N-((1R,4r)-4-(2-(((R)-2-(5-Fluoropyridin-3-yl)-2-hydroxyethyl)amino)-2-methylpropyl)cyclohexyl)methanesulfonamide] | + + + | < 25 |  | 
13 | O[C@@H](CNCCC[C@H]1CC[C@@H](OCc2ccccc2)CC1)c1cccc(F)c1 [Example 55, (R)-2-((3-((1s,4R)-4-(Benzyloxy)cyclohexyl)propyl)amino)-1-(3-fluoro-phenyl)ethan-1-ol] |  | < 25 | 25 to 50 | 
14 | CC(C)(CC[C@H]1CC[C@H](C(=O)O)CC1)NC[C@H](O)c1cncc(F)c1 [Example 118, (1R,4r)-4-(3-(((R)-2-(5-Fluoropyridin-3-yl)-2-hydroxyethyl)amino)-3-methylbutyl)cyclohexane-1-carboxylic acid] |  | < 25 | 25 to 50 | 
15 | CC(=O)N[C@H]1CC[C@H](CNC[C@H](O)c2cccc(F)c2)CC1 [Example 67, N-((1R,4r)-4-((((R)-2-(3-Fluorophenyl)-2-hydroxyethyl)amino)methyl)-cyclohexyl)acetamide] |  | < 25 | 25 to 50 | 
16 | CC(C)(C[C@H]1CC[C@H](NC(=O)C2CC2)CC1)NC[C@H](O)c1cccc(F)c1.Cl [Example 156, N-((1R,4r)-4-(2-(((R)-2-(3-Fluorophenyl)-2-hydroxyethyl)amino)-2-methylpropyl)cyclohexyl)cyclopropanecarboxamide hydrochloride] | + + + |  |  | + + +
17 | CN(C)S(=O)(=O)[C@H]1CC[C@@H](CC(C)(C)NC[C@H](O)c2cncc(F)c2)CC1 [Example 189, (1S,4s)-4-(2-(((R)-2-(5-Fluoropyridin-3-yl)-2-hydroxyethyl)amino)-2-methylpropyl)-N,N-dimethylcyclohexane-1-sulfonamide dihydrochloride] | + + + |  |  | + +
18 | Cc1ncccc1[C@@H](O)CNC(C)(C)C[C@H]1CC[C@H](NS(C)(=O)=O)CC1 [Example 146, N-((1R,4r)-4-(2-(((R)-2Hydroxy-2-(2-methylpyridin-3-yl)ethyl)amino)-2-methylpropyl)cyclohexyl)methanesulfonamide dihydrochloride] | + + | < 25 |  | 
19 | CNS(=O)(=O)[C@H]1CC[C@H](CC(C)(C)NC[C@H](O)c2cccc(F)c2)CC1 [Example 190, (1R,4r)-4-(2-(((R)-2-(3-Fluorophenyl)-2-hydroxyethyl)amino)-2-methyl-propyl)-N-methylcyclohexane-1-sulfonamide hydrochloride] | + + + | 25 to 50 |  | 
20 | O[C@@H](CNC[C@H]1CC[C@@H](OCc2ccccc2)CC1)c1cncc(F)c1 [Example 27, (R)-2-((((1s,4S)-4-(Benzyloxy)cyclohexyl)methyl)amino)-1-(5-fluoropyridin-3-yl)ethan-1-ol] | + + + | < 25 |  | 
21 | CC(=O)N[C@H]1CC[C@@H](CC(C)(C)NC[C@H](O)c2cccc(F)c2)CC1 [Example 164, N-((1S,4s)-4-(2-(((R)-2-(3-Fluorophenyl)-2-hydroxyethyl)amino)-2-methylpropyl)cyclohexyl)acetamide] | + + + | < 25 |  | 
22 | O=C(N[C@H]1CC[C@@H](CNC[C@H](O)c2cncc(F)c2)CC1)c1ccccc1 [Example 76, N-((1S,4s)-4-((((R)-2-(5-Fluoropyridin-3-yl)-2-hydroxyethyl)amino)methyl)-cyclohexyl)benzamide] | + + | < 25 |  | 
23 | O[C@@H](CNCCC[C@H]1CC[C@H](O)CC1)c1cncc(F)c1 [Example 58, (1S,4r)-4-(3-(((R)-2-(5-Fluoropyridin-3-yl)-2-hydroxyethyl)amino)-propyl)cyclohexan-1-ol] |  | < 25 | 25 to 50 | 
24 | O=C(N[C@H]1CC[C@H](CNC[C@H](O)c2cncc(F)c2)CC1)c1ccccc1 [Example 70, N-((1R,4r)-4-((((R)-2-(5-Fluoropyridin-3-yl)-2-hydroxyethyl)amino)methyl)-cyclohexyl)benzamide] |  | < 25 | 25 to 50 | 

— patent US20240390298A1, “CYCLOHEXYL BETA-HYDROXY ALKYL AMINES AND MEDICAL USES THEREOF” (ATROGI AB, priority 2021, published 2024)
